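Assay format: 96-well plates, 48-hour exposure. At the GI50, growth is halved.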 Active and inactive are the calls of the source. No stated cut-off is given here; in the data, active = GI50 up to about 1.1 µM and inactive = higher.
Tests used:
Assay in all cases: growth of human tumour cells (NCI), 48 h
NCI-H23 = tested on: NCI-H23
HCT-15 = tested on: HCT-15
KM12 = tested on: KM12
LOX IMVI = tested on: LOX IMVI
HT-29 = tested on: HT-29
SW-620 = tested on: SW-620
SK-OV-3 = tested on: SK-OV-3
SK-MEL-2 = tested on: SK-MEL-2
IGROV-1 = tested on: IGROV-1
CCRF-CEM = tested on: CCRF-CEM
OVCAR-8 = tested on: OVCAR-8
M14 = tested on: M14
SF-295 = tested on: SF-295
OVCAR-4 = tested on: OVCAR-4
UACC-62 = tested on: UACC-62
MCF7 = tested on: MCF7
HL-60 = tested on: HL-60
DU-145 = tested on: DU-145

| SMILES | GI50 (NCI-H23) | GI50 (HCT-15) | GI50 (KM12) | GI50 (LOX IMVI) | GI50 (HT-29) | GI50 (SW-620) | GI50 (SK-OV-3) | GI50 (SK-MEL-2) | GI50 (IGROV-1) | GI50 (CCRF-CEM) | GI50 (OVCAR-8) | GI50 (M14) | GI50 (SF-295) | GI50 (OVCAR-4) | GI50 (UACC-62) | GI50 (MCF7) | GI50 (HL-60) | GI50 (DU-145) |
| --- | --- | --- | --- | --- | --- | --- | --- | --- | --- | --- | --- | --- | --- | --- | --- | --- | --- | --- |
| O=C1C2CCCCC2C(=O)N1n1c(Cc2ccc(Cl)cc2)n[nH]c1=O (stereo not drawn) | > 100 µM (inactive) | > 100 µM | > 100 µM (inactive) | > 100 µM (inactive) | > 100 µM (inactive) | > 100 µM (inactive) | > 100 µM (inactive) | > 100 µM (inactive) | > 100 µM (inactive) | > 100 µM (inactive) | > 100 µM (inactive) | > 100 µM (inactive) | > 100 µM (inactive) | > 100 µM (inactive) | > 100 µM (inactive) | > 100 µM (inactive) |  |  |
| CC(C)(C)OC(=O)NC(CCCCNC(=O)OCc1ccccc1)C(=O)NC(CCCCNC(=O)OCc1ccccc1)C(=O)ON1C(=O)CCC1=O (stereo not drawn) | > 100 µM (inactive) | > 100 µM | > 100 µM (inactive) |  | > 100 µM (inactive) | > 100 µM (inactive) |  | > 100 µM (inactive) | > 100 µM (inactive) | > 100 µM (inactive) | > 100 µM (inactive) | > 100 µM (inactive) |  |  | > 100 µM (inactive) | > 100 µM (inactive) | > 100 µM (inactive) |  |
| CCOC(=O)C1=C(N2CCCC2)C(=O)C(C(=O)OCC)C1 (stereo not drawn) | > 100 µM (inactive) | > 100 µM | > 100 µM (inactive) | > 100 µM (inactive) |  | > 100 µM (inactive) | > 100 µM (inactive) | > 100 µM (inactive) | > 100 µM (inactive) |  | > 100 µM (inactive) | > 100 µM (inactive) | > 100 µM (inactive) | > 100 µM (inactive) |  | > 100 µM (inactive) |  |  |
| COc1cccc(OC)c1NC(=O)C(=O)Nn1c(NNC(=O)c2ccncc2)nc2ccccc2c1=O | > 100 µM (inactive) | > 100 µM | > 100 µM (inactive) | > 100 µM (inactive) | > 100 µM (inactive) | > 100 µM (inactive) | > 100 µM (inactive) | > 100 µM (inactive) | > 100 µM (inactive) | > 100 µM (inactive) | > 100 µM (inactive) | > 100 µM (inactive) | > 100 µM (inactive) | > 100 µM (inactive) | > 100 µM (inactive) | > 100 µM (inactive) | > 100 µM (inactive) |  |
| COC(=O)c1ccccc1C1=C([N+](=O)[O-])C(c2cccc(Br)c2)C(C#N)=C(N)O1 (stereo not drawn) | 27.1 µM (inactive) | 19.4 µM | > 10 µM (inactive) | 19.4 µM (inactive) | 43.5 µM (inactive) | 25.8 µM (inactive) | > 100 µM (inactive) | > 100 µM (inactive) | 27.8 µM (inactive) | 20.8 µM (inactive) | 21 µM (inactive) | 28 µM (inactive) | > 100 µM (inactive) |  | 21 µM (inactive) |  | 29 µM (inactive) | 32.3 µM (inactive) |
| O=C(/C=C1/Nc2ccc([N+](=O)[O-])cc2N/C1=C/C(=O)c1ccc(Cl)cc1)c1ccc(Cl)cc1 | 11.6 µM (inactive) | 24.2 µM | > 100 µM (inactive) |  | > 100 µM (inactive) |  |  | 13.6 µM (inactive) | > 100 µM (inactive) | 34.4 µM (inactive) | 54.8 µM (inactive) | > 100 µM (inactive) | 91 µM (inactive) | > 100 µM (inactive) | 49.4 µM (inactive) | 49.5 µM (inactive) |  | > 100 µM (inactive) |
| CCCNC(=O)N(C)C(=O)N1N=C(c2ccccc2)C1c1ccccc1 (stereo not drawn) | > 100 µM (inactive) | 45.3 µM | 40.5 µM (inactive) | 75.5 µM (inactive) |  | > 100 µM (inactive) | > 100 µM (inactive) | > 100 µM (inactive) | 78.7 µM (inactive) | 17.7 µM (inactive) | 55.7 µM (inactive) | > 100 µM (inactive) | 64.7 µM (inactive) | 46.1 µM (inactive) | 59.3 µM (inactive) | > 100 µM (inactive) |  | > 100 µM (inactive) |
| CSc1nc(Cl)c2c(n1)Sc1nc3ccccc3n1N=C2 | 29.6 µM (inactive) | 17.6 µM | 37.8 µM (inactive) | 18.2 µM (inactive) | 23.2 µM (inactive) | 13.2 µM (inactive) | > 100 µM (inactive) | 50.4 µM (inactive) | 17 µM (inactive) | 14.9 µM (inactive) | 19.1 µM (inactive) | 21 µM (inactive) | > 100 µM (inactive) | 29.4 µM (inactive) | 29.4 µM (inactive) |  |  | > 100 µM (inactive) |
| Cn1c(=O)nc2n(CCO)ccnc-2c1=O | > 100 µM (inactive) | > 100 µM | > 100 µM (inactive) | > 100 µM (inactive) | > 100 µM (inactive) | > 100 µM (inactive) |  | > 100 µM (inactive) | > 100 µM (inactive) | > 100 µM (inactive) | > 100 µM (inactive) | > 100 µM (inactive) | > 100 µM (inactive) | > 100 µM (inactive) | > 100 µM (inactive) | > 100 µM (inactive) |  | > 100 µM (inactive) |
| O=C1C=CC2(C=C1)CCC(=O)O2 | 14.2 µM (inactive) | 7.52 µM | 15.3 µM (inactive) | 4.83 µM (inactive) | 22.9 µM (inactive) | 11.6 µM (inactive) |  | 16.1 µM (inactive) | 10.8 µM (inactive) | 5.82 µM (inactive) | 16.2 µM (inactive) | 29.2 µM (inactive) | 19.8 µM (inactive) | 14.8 µM (inactive) | 16.5 µM (inactive) | 13.4 µM (inactive) |  | 15.5 µM (inactive) |
| O=C1c2ccccc2C(=O)N1n1c(Cc2ccc(Cl)cc2)n[nH]c1=O | > 100 µM (inactive) | > 100 µM | > 100 µM (inactive) | > 100 µM (inactive) | > 100 µM (inactive) | > 100 µM (inactive) |  | > 100 µM (inactive) | > 100 µM (inactive) | > 100 µM (inactive) | > 100 µM (inactive) | > 100 µM (inactive) | > 100 µM (inactive) | > 100 µM (inactive) | > 100 µM (inactive) | > 100 µM (inactive) |  | > 100 µM (inactive) |
| Cc1nnc2n1-c1ccccc1C(=S)N1CSCC21 (stereo not drawn) |  | 79.3 µM | > 100 µM (inactive) | > 100 µM (inactive) | > 100 µM (inactive) | > 100 µM (inactive) | > 100 µM (inactive) | > 100 µM (inactive) | > 100 µM (inactive) | > 100 µM (inactive) | > 100 µM (inactive) | > 100 µM (inactive) | > 100 µM (inactive) | > 100 µM (inactive) | > 100 µM (inactive) | > 100 µM (inactive) |  | > 100 µM (inactive) |
| O=C(CC(NC(=O)OCc1ccccc1)C(=O)NC1Cc2ccccc2C1=O)OCc1ccccc1 (stereo not drawn) | > 100 µM (inactive) | > 100 µM | > 100 µM (inactive) |  | > 100 µM (inactive) | > 100 µM (inactive) | > 100 µM (inactive) | > 100 µM (inactive) | > 100 µM (inactive) |  | > 100 µM (inactive) | > 100 µM (inactive) | > 100 µM (inactive) |  | > 100 µM (inactive) | > 100 µM (inactive) |  | > 100 µM (inactive) |
| CCOC(=O)C(NC(=O)Nc1ccc(Cl)c(Cl)c1)C(F)(F)F (stereo not drawn) | > 100 µM (inactive) | 40.9 µM |  | > 100 µM (inactive) | > 100 µM (inactive) | > 100 µM (inactive) | > 100 µM (inactive) | 63 µM (inactive) | > 100 µM (inactive) | > 100 µM (inactive) | > 100 µM (inactive) | > 100 µM (inactive) |  |  |  |  | > 100 µM (inactive) |  |
| Nc1ccc2ccc(-c3ccc[nH]3)nc2n1 | > 100 µM (inactive) | > 100 µM | > 100 µM (inactive) | > 100 µM (inactive) |  | > 100 µM (inactive) | > 100 µM (inactive) | > 100 µM (inactive) | > 100 µM (inactive) |  | > 100 µM (inactive) | > 100 µM (inactive) | > 100 µM (inactive) | > 100 µM (inactive) |  | > 100 µM (inactive) |  |  |
| N#CC(c1cc(Cl)ncn1)c1nc2cc(C(F)(F)F)ccc2s1 (stereo not drawn) | 2.58 µM (inactive) | 3.48 µM | 3.27 µM (inactive) | 3.57 µM (inactive) | 3.39 µM (inactive) | 5.37 µM (inactive) | 17.5 µM (inactive) |  | 5.87 µM (inactive) |  | 3.83 µM (inactive) | 4.09 µM (inactive) | 7.33 µM (inactive) | 2.97 µM (inactive) |  |  |  | 12.9 µM (inactive) |
| O=C(O)C/N=C(\C(=N\CC(=O)O)c1ccccc1)c1ccccc1 | > 100 µM (inactive) | > 100 µM | > 100 µM (inactive) | > 100 µM (inactive) |  | > 100 µM (inactive) | > 100 µM (inactive) | > 100 µM (inactive) |  |  | > 100 µM (inactive) | > 100 µM (inactive) | > 100 µM (inactive) | > 100 µM (inactive) | > 100 µM (inactive) | > 100 µM (inactive) |  | > 100 µM (inactive) |
| Cc1ccc(S(=O)(=O)Nn2c(S)c(C#N)c(-c3ccc([N+](=O)[O-])cc3)c(C#N)c2=O)cc1 |  | 17.3 µM | 31.6 µM (inactive) | 14.8 µM (inactive) | 32.5 µM (inactive) | 19.2 µM (inactive) | 82 µM (inactive) | 23 µM (inactive) | 19.4 µM (inactive) | 23.2 µM (inactive) | 36.6 µM (inactive) | 35.1 µM (inactive) | 49.4 µM (inactive) | 24.7 µM (inactive) | 25.8 µM (inactive) | 25.6 µM (inactive) |  |  |
| COc1cc2c(cc1OCCCCCN1C(=O)c3cccc4cccc(c34)C1=O)N=C[C@@H]1CCCN1C2=O | 0.222 µM (active) | 0.331 µM | 0.231 µM (active) | 0.126 µM (active) | 0.286 µM (active) | 0.278 µM (active) | 0.514 µM (active) | 0.223 µM (active) | 0.0552 µM (active) | 0.0142 µM (active) | 0.281 µM (active) | 0.24 µM (active) | 0.386 µM (active) | 0.248 µM (active) | 0.13 µM (active) | 0.181 µM (active) |  | 0.255 µM (active) |

From ChEMBL document CHEMBL1201862, “PubChem BioAssay data set” (2004)
